Measured values from patent publication US10174077B2, “Method of inhibiting activity of cell surface fibroblast activation protein alpha” (The Board of Regents of the University of Oklahoma, priority 2006, dated 2019).
Read-outs that look alike come from different tables or passages of the source. Where a SMILES comes first, the peptide text is derived from it. [ ]: non-standard residue; d: D form. Pip = O=C(O)[C@@H]1CCCCN1; AEEA = NCCOCCOCC(=O)O

Legend:
APCE = molecular target: T1, APCE (Homo sapiens, UniProt Q12884); assay: APCE enzyme assay with fluorescent AMC substrates, competitive inhibition constants; assay type: biochemical; settings: for Selectivity, Ki (DPPIV)/Ki (APCE/FAP): ratio of Ki values
T1 construct: APCE lacks the first 23 amino terminal residues of FAP; tissue Sylvan Goldman Blood Institute (source of the plasma); host or cells: human plasma
T1 sequence (Q12884 24-760 limits assumed): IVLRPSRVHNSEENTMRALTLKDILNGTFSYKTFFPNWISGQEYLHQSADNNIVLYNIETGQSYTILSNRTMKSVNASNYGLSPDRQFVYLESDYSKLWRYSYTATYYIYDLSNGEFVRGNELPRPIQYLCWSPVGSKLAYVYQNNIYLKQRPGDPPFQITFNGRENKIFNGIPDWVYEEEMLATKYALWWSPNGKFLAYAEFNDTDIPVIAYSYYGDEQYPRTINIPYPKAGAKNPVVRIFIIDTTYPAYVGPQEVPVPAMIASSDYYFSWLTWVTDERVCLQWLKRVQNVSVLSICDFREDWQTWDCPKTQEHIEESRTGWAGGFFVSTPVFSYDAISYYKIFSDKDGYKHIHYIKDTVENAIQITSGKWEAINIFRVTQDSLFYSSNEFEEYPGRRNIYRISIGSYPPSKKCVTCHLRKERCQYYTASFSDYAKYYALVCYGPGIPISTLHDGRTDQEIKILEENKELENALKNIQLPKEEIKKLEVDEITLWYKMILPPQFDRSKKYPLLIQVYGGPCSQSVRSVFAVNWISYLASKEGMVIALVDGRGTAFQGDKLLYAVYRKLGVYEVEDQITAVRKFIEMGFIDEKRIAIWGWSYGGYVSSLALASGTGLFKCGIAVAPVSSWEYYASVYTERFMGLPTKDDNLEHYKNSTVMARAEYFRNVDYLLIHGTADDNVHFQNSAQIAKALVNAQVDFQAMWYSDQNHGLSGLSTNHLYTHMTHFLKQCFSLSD
Experimental: (§1) Fluorescence was monitored with time at excitation and emission wavelengths of 360 and 460 nm using a black-sided, 96-well plate in a BIO-TEK FL600 fluorescence plate reader. For standard curves, dilutions of AMC (7-amino-4-methylcoumarin) were prepared in the same assay buffer and corresponding fluorescence was measured. The substrates in five different concentrations were mixed with four different concentrations of inhibitors around the expected Ki values; the enzyme was added and enzymatically released AMC fluorescence was recorded. […] Therefore, enzyme kinetic parameters were computed by fitting data to the following equation, employing the program PRISM, GraphPad: […]

DPPIV = DPPIV (Homo sapiens, UniProt P27487); assay: DPPIV enzyme assay with fluorescent AMC substrates, inhibition constants; assay type: biochemical
Chain of DPPIV (P27487 whole entry, species assumed): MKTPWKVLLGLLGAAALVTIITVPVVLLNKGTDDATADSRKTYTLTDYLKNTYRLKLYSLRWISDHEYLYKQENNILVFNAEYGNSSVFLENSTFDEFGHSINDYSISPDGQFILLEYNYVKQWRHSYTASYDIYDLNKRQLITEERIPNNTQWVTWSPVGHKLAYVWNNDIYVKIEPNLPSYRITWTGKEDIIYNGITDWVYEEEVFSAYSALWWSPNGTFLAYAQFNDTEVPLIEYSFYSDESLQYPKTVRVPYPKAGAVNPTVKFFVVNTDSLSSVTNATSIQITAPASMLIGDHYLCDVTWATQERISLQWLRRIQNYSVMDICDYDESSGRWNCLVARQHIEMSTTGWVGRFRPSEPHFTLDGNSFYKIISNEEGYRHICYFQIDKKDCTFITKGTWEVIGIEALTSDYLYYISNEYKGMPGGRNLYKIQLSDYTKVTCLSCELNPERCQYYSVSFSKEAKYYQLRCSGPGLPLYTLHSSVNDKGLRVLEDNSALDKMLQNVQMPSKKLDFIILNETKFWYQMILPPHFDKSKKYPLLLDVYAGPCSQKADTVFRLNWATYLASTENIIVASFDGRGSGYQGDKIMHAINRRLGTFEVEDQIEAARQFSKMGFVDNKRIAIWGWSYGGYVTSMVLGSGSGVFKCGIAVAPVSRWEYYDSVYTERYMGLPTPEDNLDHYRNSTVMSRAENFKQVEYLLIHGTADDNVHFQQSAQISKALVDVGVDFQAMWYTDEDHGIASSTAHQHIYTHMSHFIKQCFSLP
Experimental: as §1

[1] = molecular target: T2, cell surface FAP of W138 fibroblast cells (Homo sapiens, UniProt Q12884); assay: Cell surface FAP activity of fibroblasts (cleavage of Ac-Arg-peg-Gly-Pro-AMC); assay type: cell-based
T2 construct: FAP proteolytic activity expressed on the surface of living fibroblast cells; endogenous in cells; host or cells: W138 (WI-38) fibroblasts
T2 sequence (Q12884 1-760): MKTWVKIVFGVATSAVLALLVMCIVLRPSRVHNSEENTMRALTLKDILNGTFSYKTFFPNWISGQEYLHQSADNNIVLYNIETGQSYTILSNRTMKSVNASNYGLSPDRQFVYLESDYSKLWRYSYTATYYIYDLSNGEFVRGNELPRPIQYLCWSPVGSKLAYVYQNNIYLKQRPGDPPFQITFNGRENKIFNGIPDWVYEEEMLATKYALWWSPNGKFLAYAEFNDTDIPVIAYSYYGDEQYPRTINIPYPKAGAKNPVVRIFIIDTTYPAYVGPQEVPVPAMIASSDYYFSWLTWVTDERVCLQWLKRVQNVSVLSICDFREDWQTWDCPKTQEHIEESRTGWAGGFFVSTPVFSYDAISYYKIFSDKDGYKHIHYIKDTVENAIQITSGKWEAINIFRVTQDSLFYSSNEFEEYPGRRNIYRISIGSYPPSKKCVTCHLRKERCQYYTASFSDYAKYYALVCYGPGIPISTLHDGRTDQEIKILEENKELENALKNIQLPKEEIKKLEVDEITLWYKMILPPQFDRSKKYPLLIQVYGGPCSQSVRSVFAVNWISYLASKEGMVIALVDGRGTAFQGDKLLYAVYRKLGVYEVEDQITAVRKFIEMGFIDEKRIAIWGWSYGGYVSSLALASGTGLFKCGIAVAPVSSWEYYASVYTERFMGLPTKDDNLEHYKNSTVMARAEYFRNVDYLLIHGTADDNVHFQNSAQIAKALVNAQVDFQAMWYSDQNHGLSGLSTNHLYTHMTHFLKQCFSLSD
Experimental: FIG. 6 is a graph showing cell surface FAP activity of fibroblasts. W138 Cells were seeded into opaque black 96 well cell culture plates and grown to confluency. Cells were washed with Hanks Balanced Salt Solution after which either the inhibitor compound Ac-Arg-(8-amino-3,6-dioxaoctanoyl)-D-Ala-L-boroPro, or buffer, was added. The FAP substrate, Ac—R-peg-G-P-AMC, was added and fluorescence was measured with time. The inhibitor was added to one set of cells 2 hours after substrate addition (see arrow). O.D. 360/460 was converted to APCE Units using a standard curve.
FIG. 6, for example, illustrates that FAP proteolytic activity expressed on the surface of living fibroblast cells can readily be inhibited by the inhibitor Ac-Arg-peg-D-Ala-boroPro (a.k.a. M83). We measured FAP activity by use of a synthetic substrate, Ac-Arg-peg-Gly-Pro-amidomethyl coumarin, which produces fluorescence upon cleavage of the bond between proline and the amidomethylcoumarin by FAP. In these experiments we made a treatment and then measured any fluorescence generated over several hours. The figure compares three treatments: • (1) “Control”: This curve represents addition of the substrate to live cells bathed in culture media with no other treatment. The synthetic substrate cleavage is observed as reflected by measurement of the fluorescence generated that is expressed as APCE Units.

[2] = molecular target: T3, cell surface FAP of MDA-MB-435 breast cancer cells (Homo sapiens, UniProt Q12884); assay: Cell surface FAP activity of breast cancer cells (cleavage of Ac-Arg-peg-Gly-Pro-AMC); assay type: cell-based; settings: live MDA-MB-435 breast cancer cells, inhibitor added with substrate
T3 construct: cultured breast cancer cells also have FAP activity on their cell surface; endogenous in cells; host or cells: MDA-MB-435 cells
T3 sequence (Q12884 1-760): T2 sequence (Q12884 1-760)
Experimental: FIG. 7 is a graph showing cell surface FAP activity of breast cancer cells. MDA-MB-435 cells were seeded into opaque black 96 well cell culture plates and grown to confluency. Cells were washed with Hanks Balanced Salt solution after which either the inhibitor compound Ac-Arg-(8-amino-3,6-dioxaoctanoyl)-D-Ala-L-boroPro, or buffer, was added. The FAP substrate, Ac—R-peg-G-P-AMC, was added and fluorescence measured with time. O.D. 360/460 was converted to APCE Units using a standard curve.
In FIG. 7, the experiment was performed in exactly the same way as for FIG. 6, except live breast cancer cells were used.

[3] = best-fit value ± standard error, read-out: Ki, inhibition of APCE activity

Row | Molecule | Ki (APCE; [3]) [µM] | Ki (DPPIV) [µM] | Selectivity, Ki (DPPIV)/Ki (APCE/FAP) (APCE) | Ki (APCE; read-out: APCE/FAP Ki) [µM] | other results
1 | FR-peg-G-[s]fluoropyrrolidide [Inhibitor (9)] | 55.3 ± 5.3 | – | – | – | –
2 | CC(=O)N[C@@H](CCCNC(=N)N)C(=O)NCCOCCOCC(=O)NCC(=O)N1CCC[C@H]1B(O)O [Ac-Arg-peg-Gly-L-boroPro] | – | 0.44 | 244 | 0.0018 | –
3 | N=C(N)NCCC[C@H](NC(=O)[C@@H](N)Cc1ccccc1)C(=O)NCCOCCOCC(=O)NCC(=O)N1CCCC[C@H]1C(N)=O [Inhibitor (11), FR-peg-G-pipecolinamide] (H-FR[AEEA]G[Pip]-NH2) | > 1000 | – | – | – | –
4 | CC(=O)NC(CCCNC(=N)N)C(=O)NCCOCCOCC(=O)NC(C)C(=O)N1CCCC1B(O)O (single isomer, unassigned) [Ac-Arg-peg-D-Ala-L-boroPro, acetyl-arg-8-amino-3,6-dioxaoctanoic acid-D-ala-L-boroPro] | – | 6.13 | 1075 | 0.0057 | Cell surface FAP activity (substrate hydrolysis, fluorescence as APCE Units) ([1]; 10 uM inhibitor added to fibroblasts 2 hrs after substrate, listed as Ac-Arg-(8-amino-3,6-dioxaoctanoyl)-D-Ala-L-boroPro): inhibited cell surface FAP immediately; Cell surface FAP activity (substrate hydrolysis, fluorescence as APCE Units) ([1]; 10 uM inhibitor added to fibroblasts 2 hrs after substrate, listed as M83): immediately and completely arrested; Cell surface FAP activity (substrate hydrolysis, fluorescence as APCE Units) ([1]; 10 uM inhibitor added to live fibroblasts simultaneously with substrate, followed 5 hours): no substrate hydrolysis occurs; Cell surface FAP activity (substrate hydrolysis, fluorescence as APCE Units) [2]: completely inhibited
5 | Ac-Arg-peg-D-Ala-DL(75:25%)-boroPro | – | – | – | 0.0183 | –
6 | CC(=O)NC(CCCNC(=N)N)C(=O)NCC(=O)NCC(=O)N1CCCC1B(O)O (racemic) [Ac-Arg-Gly-Gly-DL-boroPro] | – | 0.341 | 14.9 | 0.0229 | –
7 | Ac-Arg-peg-D-Ala-DL(25:75%)-boroPro | – | – | – | 0.0077 | –
8 | CC(=O)NC(CCCNC(=N)N)C(=O)NCCOCCOCC(=O)NC(C)C(=O)N1CCCC1B(O)O [Ac-Arg-peg-D-Ala-DL(50:50%)-boroPro] | – | 11.2 | 1176 | 0.0095 | –
9 | CC(=O)N[C@@H](CCCNC(=N)N)C(=O)NCCOCCOCC(=O)N[C@@H](CO)C(=O)NCC(=O)N1CCC[C@H]1B(O)O [Ac-Arg-peg-Ser-Gly-L-boroPro] | – | – | 319 | – | –
10 | CC(=O)NC(CCCNC(=N)N)C(=O)NCCOCCOCC(=O)NCC(=O)N1CCCC1B(O)O (racemic) [Ac-Arg-peg-Gly-DL-boroPro] | – | 1.15 | 371 | 0.0031 | –
11 | CC(=O)N[C@@H](CCCNC(=N)N)C(=O)NCCOCCOCC(=O)N[C@H](CC(=O)O)C(=O)N1CCC[C@H]1B(O)O [Ac-Arg-peg-D-Asp-L-boroPro] | – | 7.13 | 5.2 | 1.38 | –
12 | FR-peg-G-pyrrolidide [Inhibitor (5)] | 67.7 ± 5.8 | – | – | – | –
13 | FR-peg-G-[r]fluoropyrrolidide [Inhibitor (8)] | 53.8 ± 4.9 | – | – | – | –
14 | FG-peg-G-pyrrolidide [Inhibitor (6)] | 703 ± 68 | – | – | – | –
15 | CC(=O)N[C@@H](CCCNC(=N)N)C(=O)NCC(=O)NCC(=O)N1CCC[C@H]1B(O)O [Ac-Arg-Gly-Gly-L-boroPro] | – | 0.322 | 18.7 | 0.0172 | –
16 | CC(=O)NC(CCCNC(=N)N)C(=O)NCCOCCOCC(=O)NC(C)C(=O)N1CCCC1B(O)O (single isomer, unassigned) [Ac-Arg-peg-D-Ala-D-boroPro] | – | – | 108 | – | –
